Results reported in patent US8772348B2, “Materials and methods for pest control” (priority 2009, dated 2014).
Where two headings read alike, the source gives them in different places.

Tests used:
Aedes aegypti [1] = settings: EC formulation on military fabric
Procedure: (§1) A commercially-available permethrin 57 g L^−1 EC (Ectiban EC 57; Universal Cooperatives, Minneapolis, Minn.) was included for comparison. Except rosalva, the 50% EC semiochemical formulations were generated by combining 500 mL AI, 430 mL canola oil (Publix, Lakeland, Fla.), 10 mL xylene, 50 mL Triton X-100 (Acros Organics Nev., Fair Lawn, N.J.) and 10 mL Agsolex-8 (International Specialty Products, Wayne, N.J.). The rosalva formulation contained all of the above-mentioned ingredients, with canola oil concentration reduced to 400 mL L^−1, Triton X-100 concentration increased to 75 mL L^−1, and 5 mL L^−1 Antifoam B silicone emulsion (Mallinckrodt Baker, Phillipsburg, N.Y.) included.
Briefly, a piece of 10×10 cm^2 fabric (TenCate Defender™) is impregnated with 2 ml of serially diluted 20-emulsifiable concentrate or 50-emulsifiable concentrate formulations, respectively, and subsequently dried for about an hour. Also, six-to-ten-day-old, never blood-fed, adult female Ae. aegypti mosquitoes are obtained. The mosquitoes are divided into seven sets: three sets as the experiment, three sets as the positive control, and one set as the negative control. Each set consists of 20 mosquitoes. […] The positive control set is exposed to fabric pieces treated with geranyl acetone, rosalva or citronellol. The negative control set is exposed to fabric pieces treated with acetone solution. Throughout the exposure periods, each set is provided with 10% sucrose solution and sufficient air circulation. Ataxic mosquitoes are considered dead. The mortality rate and the LC values are determined using the same procedures as are illustrated in Example 2.

Aedes aegypti [2] = settings: formulation on military fabric at LC99-based concentration, 2 h exposure, mortality 24 h after initial exposure
Procedure: Briefly, after mosquitoes are exposed to formulations for 2 hours at a concentration of LC99, each set is transferred into a separate glass jar, and held for another 24 hours. The mortality rate is measured with new mosquitoes on post-treatment days 2, 3, 5, 8 and 14 (Day 1 starts at 24 hours after the transfer), and is determined using the same procedures as are illustrated in Example 2.
Concentrations were generated from technical-based LC99 values obtained from a 2 h exposure period on military fabric. Fabric was treated on day 0 and was held until exposure on post-treatment day. Mosquitoes were exposed for 2 h, and mortality rate was assessed 24 h after initial exposure. Control contained formulation ingredients without semiochemicals.

[3] = system: Susceptible Musca domestica; experiment: Contact bioassay of emulsified concentrate formulations on filter paper discs; settings: EC formulation on filter paper
Procedure: as §1
Briefly, Whatman No. 1 filter paper discs (63.58 cm^2) are impregnated with 1.5 ml serially diluted formulations in 20 emulsified concentrates and 50 emulsified concentrates, respectively, and subsequently dried for about an hour. Then, house flies are divided into seven sets: three sets as the experiment, three sets as the positive control, and one set as the negative control. Each set consists of twenty six-to-ten-day old adult flies. […] The positive control set is exposed to paper discs impregnated with geranyl acetone, rosalva or citronellol. The negative control set is exposed to paper discs impregnated with acetone solution. Throughout the exposure periods, each set is provided with 10% sucrose solution and sufficient air circulation. Ataxic flies are considered dead. The mortality rate and the LC values are determined using the same procedures as is illustrated in Example 2.

Aedes aegypti [4] = settings: formulation on plywood panels at 1.67 mg cm^−2, 2 h exposure, mortality 24 h after initial exposure
Procedure: Briefly, after mosquitoes are assayed on unpainted plywood panel boards with formulation at a concentration of 1.67 mg cm^−2 for 2 hours, they are transferred into a separate glass jar, and held for another 24 hours. The mortality rate is measured daily for a continuous 4 days (Day 1 starts at 24 hours after the transfer), as is determined using the same procedures as are illustrated in Example 2.
Plywood panels (225 cm^2) were treated with chemicals at a rate of 1.67 mg cm^−2. Panels were treated on day 0 and was held until exposure on post-treatment day. Mosquitoes were exposed to chemicals for 2 h, and mortality rate was assessed 24 h after initial exposure. Control contained formulation ingredients without semiochemicals.

SMILES | LC90 (Aedes aegypti [1]; exposure period 2 hours) | LC90 (Aedes aegypti [1]; exposure period 4 hours) | LC90 (Aedes aegypti [1]; exposure period 24 hours) | % mortality on various days following treatment (Aedes aegypti [2]; day 1) | % mortality on various days following treatment (Aedes aegypti [2]; day 2) | % mortality on various days following treatment (Aedes aegypti [2]; day 5) | % mortality on various days following treatment (Aedes aegypti [2]; day 14) | LC90 ([3]; 24 h constant exposure) | LC90 ([3]; 48 h constant exposure) | % mortality on various days following treatment (Aedes aegypti [4]; day 1) | % mortality on various days following treatment (Aedes aegypti [4]; day 2) | % mortality on various days following treatment (Aedes aegypti [4]; day 3) | % mortality on various days following treatment (Aedes aegypti [4]; day 4) | % mortality on various days following treatment (Aedes aegypti [2]; day 3) | % mortality on various days following treatment (Aedes aegypti [2]; day 8)
CC(C)=CCCC(C)CCO (stereo not shown) [Citronellol, citronellol] | 1938.19 μg cm^−2 | 1434.18 μg cm^−2 | 700.43 μg cm^−2 | 95.00a % | 77.50a % | 35.00b % | 2.50cd % | 580.00 μg cm^−2 | 886.04 μg cm^−2 | 94.00a % | 61.0b % | 26.0b % | 10.0b % | – | –
CC(=O)CC/C=C(\C)CCC=C(C)C [Geranyl acetone, geranyl acetone] | 934.62 μg cm^−2 | 742.61 μg cm^−2 | 338.61 μg cm^−2 | 91.25a % | 83.00a % | 32.50b % | 5.00c % | 1227.00 μg cm^−2 | 716.72 μg cm^−2 | 84.00a % | 25.0c % | 8.0c % | 5.0c % | 30.00c % | 17.50c %
C=CCCCCCCCCO [Rosalva, rosalva] | 1276.16 μg cm^−2 | 1262.11 μg cm^−2 | 500.92 μg cm^−2 | 95.00a % | 87.50a % | 35.00b % | 0.00d % | 1054.32 μg cm^−2 | 1022.88 μg cm^−2 | 58.00b % | 34.0c % | 11.0% | 3.25.c % | 65.00b % | 27.50a %
